Here are results for one compound from patent publication US12509423B2, “Compound, aldehyde dehydrogenase 2 activating agent, pharmaceutical composition, and therapeutic and/or prophylactic drug” (Alchemedicine, Inc., priority 2020, dated 2025).

As usually defined, the IC50 is the concentration that gives 50% inhibition. Lower therefore signals higher potency.

Data set [1] has as its system pain induced by carrageenan (mechanical allodynia). The data set is described as follows: Suppression effect on pain induced by carrageenan (von Frey escape score). The class given is in vivo, C57BL/6J mice. The following applies: mean ± SE. As to the method:
This experiment was carried out with reference to Science Translational Medicine 6, 251ra118 (2014). Animals used were 7-week-old male C57BL/6J mice (Charles River Laboratories Japan, Inc.). To induce mechanical allodynia to a sole part, carrageenan was subcutaneously administered to the sole of the left hind limb of each mouse. The escape response against mechanical stimulation 180 minutes after the induction was measured by using a von Frey filament with bending force (0.16 grams) to the sole surface of the left hind limb in the ascending direction. […] The commercially available statistical program SAS SYSTEM (SAS Software Release 9.1.3; SAS Institute Japan Ltd.) was used for the significance test.

Data set [2] deals with T1, human recombinant ALDH2 enzyme (Homo sapiens, UniProt P05091).
T1 construct: purchased BioVision Inc
T1 sequence (P05091 18-517): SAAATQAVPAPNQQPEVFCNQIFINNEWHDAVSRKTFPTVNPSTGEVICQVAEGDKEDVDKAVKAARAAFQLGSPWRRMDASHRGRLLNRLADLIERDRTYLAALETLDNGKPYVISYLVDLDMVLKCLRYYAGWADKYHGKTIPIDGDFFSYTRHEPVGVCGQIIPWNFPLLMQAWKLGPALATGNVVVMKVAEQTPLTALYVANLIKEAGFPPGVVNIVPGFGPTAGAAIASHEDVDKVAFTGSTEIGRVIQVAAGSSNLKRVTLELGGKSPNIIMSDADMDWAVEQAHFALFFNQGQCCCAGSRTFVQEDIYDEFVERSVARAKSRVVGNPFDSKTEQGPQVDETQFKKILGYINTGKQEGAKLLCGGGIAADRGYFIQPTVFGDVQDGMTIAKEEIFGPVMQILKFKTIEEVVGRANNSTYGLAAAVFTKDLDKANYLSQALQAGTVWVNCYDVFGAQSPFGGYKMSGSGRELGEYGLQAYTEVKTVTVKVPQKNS
The data set is described as follows: ALDH2 activation effect (acetaldehyde oxidation rate, PicoProbe Aldehyde dehydrogenase Activity Assay Kit). Type of data set: biochemical. As to the method: The activation effect of each test compound on the acetaldehyde oxidation rate of ALDH2 was measured with the following method. A test was conducted by using a commercially available PicoProbe™ Aldehyde dehydrogenase Activity Assay Kit (manufactured by BioVision Inc.) with reference to an instruction attached to the product under the following conditions. To each well of a 384-well plate, the following (1) to (3) were sequentially added with a pipette: • (1) 10 μL of solution obtained by dissolving and diluting a human recombinant ALDH2 enzyme (manufactured by BioVision Inc.) with ALDH assay Buffer to reach 3-μg/mL; • (2) 10 μL of 30 μM or 90 μM test compound solution (with 3% DMSO) prepared by using ALDH assay Buffer; and • (3) 10 μL of Reaction mix composed with ratio of 8.6 μL of ALDH assay Buffer, 0.6 μL of PicoProbe, 0.3 μL of Substrate Mix, and 1.5 μL of Acetaldehyde.
Before addition of (3), incubation was performed at room temperature for 5 minutes. After addition of (3), fluorescence intensity was measured at room temperature every 2.5 minutes over a period of 180 minutes by using an EnSight (manufactured by PerkinElmer Inc.). Wavelengths of 535 nm and 587 nm were used for fluorescence intensities of excitation and -emission, respectively.

Data set [3] in a line: Metabolic stability with human hepatic microsomes. The following applies: human hepatic microsomes 0.1 mg protein/mL, 0.1 μmol/L test compound, after 30 minutes, 37° C. The class given is in vitro ADME. The procedure:
The specific method is as follows.
• (1) Fifty microliter-portions were taken from 0.2 μmol/L test compound diluted with β-NADPH solution. • (2) Fifty microliters of 0.2 mg protein/mL human hepatic microsome solution was added to each (except for a sample with a reaction time of 0 minutes). • (3) Incubation was performed with shaking at 37° C. for 30 minutes (concentration in reaction sample: 0.1 μmol/L test compound, 0.1 mg protein/mL human hepatic microsome). • (4) After incubation, 400 μL of methanol was added to terminate the reaction. • (5) To the sample with a reaction time of 0 minutes, 50 μL of 0.2 mg protein/mL hepatic microsome solution was added. • (6) Each of the samples from (4) and (5) was left to stand at −20° C. for 30 minutes or longer, and then centrifuged at 4° C. and 3,000 rpm for approximately 10 minutes. • (7) The supernatant was subjected to measurement with LC/MS/MS, and, based on the peak area obtained for the unchanged form, the residual rate (%) of the unchanged form was calculated as that for the case with an incubation time of 0 minutes was assumed as 100%.

Data set [4] can be described thus: Metabolic stability with mouse hepatic microsomes. Type of data set: in vitro ADME. As to the method:
Metabolic stability in mouse hepatic microsomes was evaluated with the following method.
• (1) Mouse hepatic microsomes: 20 mg/mL • (2) Test compound: 1.1 mM DMSO solution • (3) Potassium phosphate buffer solution: 66.7 mM (pH 7.4) • (4) NADPH solution: 10 mM in potassium phosphate buffer solution • (5) Quenching solution: 0.5% formic acid-acetonitrile solution with warfarin as internal standard substance 2. Method
Into a propylene tube, 971.5 μL of the potassium phosphate buffer solution and 27.5 μL of the mouse hepatic microsomes were put and suspended. Thereto, 1 μL of a test compound was added, and 180 μL was taken from this mixture and transferred into another tube. The mixture was preincubated at 37° C. for 5 minutes, and 20 μL of the NADPH solution (for the case with an incubation time of 30 minutes) or 20 μL of the potassium phosphate buffer solution (for the case with an incubation time of 0 minutes) was then added thereto. After incubation, 200 μL of the quenching solution was added to terminate the reaction. Subsequently, centrifugation was performed at 3220×g for 20 minutes, and the concentration of the unchanged form of the test compound in 200 μL of the supernatant was measured with LC-MS/MS. On the basis of the peak area obtained for the unchanged form, the residual rate (%) of the unchanged form was calculated as that for the case with an incubation time of 0 minutes was assumed as 100%.

Data set [5] deals with hERG (human Ether-a-go-go Related Gene) channel (Homo sapiens, UniProt Q12809). The data set is described as follows: hERG channel inhibition effect (whole-cell patch clamp). The following applies: 22 to 25° C. The class given is cell-based. As to the method: The hERG (human Ether-a-go-go Related Gene) channel inhibition effect of each test compound was examined with the following patch clamp method.
Under a fixed potential, an hERG current that passed through the whole cell membrane was recorded with the whole-cell patch clamp method.
To confirm the hERG current, the holding potential was set to −80 mV, and depolarizing pulses at −50 mV for 110 msec and at 20 mV for 4 sec and a subsequent repolarizing pulse at −50 mV for 2 sec were provided at a frequency of once per 15 seconds. After the stabilization of the hERG tail current obtained was confirmed, an application was initiated. The pulses were continuously provided also during the application.
The sampling frequency was set to 5 kHz, and Lowpass Filter was applied at 2 kHz. […]
hERG currents were measured by using an amplifier for patch clamping (Axopatch 200B, Molecular Devices, LLC), and electric signals obtained were recorded in a computer via recording/analysis software for patch clamping (pCLAMP 10, Molecular Devices, LLC).
The maximum tail current value was determined on the basis of the current value with the depolarizing pulse at −50 mV for 110 msec, and the change rate (suppression rate) 5 minutes after the initiation of application to the maximum tail current value before application of the test compound was calculated.

hERG (human Ether-a-go-go Related Gene) channel, sequence (Q12809 whole entry): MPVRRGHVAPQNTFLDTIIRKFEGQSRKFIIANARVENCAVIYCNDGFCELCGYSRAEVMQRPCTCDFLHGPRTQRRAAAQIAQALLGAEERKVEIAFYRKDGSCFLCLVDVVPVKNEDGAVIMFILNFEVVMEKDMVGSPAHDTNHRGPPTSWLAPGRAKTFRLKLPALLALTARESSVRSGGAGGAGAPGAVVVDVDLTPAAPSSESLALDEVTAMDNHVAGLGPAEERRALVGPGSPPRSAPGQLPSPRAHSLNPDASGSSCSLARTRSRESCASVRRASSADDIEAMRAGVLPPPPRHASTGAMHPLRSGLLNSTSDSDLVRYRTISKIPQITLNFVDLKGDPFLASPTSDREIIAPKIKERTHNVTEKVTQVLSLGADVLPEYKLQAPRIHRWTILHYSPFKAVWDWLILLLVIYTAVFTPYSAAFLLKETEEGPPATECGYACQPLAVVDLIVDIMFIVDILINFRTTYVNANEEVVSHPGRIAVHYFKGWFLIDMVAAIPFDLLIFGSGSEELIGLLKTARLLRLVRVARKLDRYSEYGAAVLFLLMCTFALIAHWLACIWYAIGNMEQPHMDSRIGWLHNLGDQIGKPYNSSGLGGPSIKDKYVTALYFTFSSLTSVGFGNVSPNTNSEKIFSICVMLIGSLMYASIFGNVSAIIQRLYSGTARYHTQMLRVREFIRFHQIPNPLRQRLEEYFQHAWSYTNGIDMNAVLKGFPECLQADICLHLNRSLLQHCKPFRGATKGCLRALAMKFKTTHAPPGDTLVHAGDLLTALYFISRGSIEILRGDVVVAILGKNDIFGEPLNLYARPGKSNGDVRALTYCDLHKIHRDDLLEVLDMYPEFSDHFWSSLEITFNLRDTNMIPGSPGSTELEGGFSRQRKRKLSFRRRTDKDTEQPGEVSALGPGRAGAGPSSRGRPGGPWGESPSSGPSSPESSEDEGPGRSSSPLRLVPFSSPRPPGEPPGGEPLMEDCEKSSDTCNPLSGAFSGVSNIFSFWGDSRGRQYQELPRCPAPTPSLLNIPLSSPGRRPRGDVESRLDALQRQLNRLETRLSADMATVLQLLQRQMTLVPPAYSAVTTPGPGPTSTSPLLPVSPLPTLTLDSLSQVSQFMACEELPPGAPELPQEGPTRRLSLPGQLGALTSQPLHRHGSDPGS

In the case of `COCc1ccc(CNC(=O)c2cc(-c3ncccc3CO)ccc2F)cc1F` [Example 1, 2-Fluoro-N-(3-fluoro-4-(methoxymethyl)benzyl)-5-(3-(hydroxymethyl)pyridin-2-yl)benzamide], the Pain-related total score in data set [1] (2 mg/kg s.c. three times, 180 min after induction with carrageenan) worked out at 10.5 ± 1.6; in data set [1] (2 mg/kg s.c. three times, Pre (before carrageenan treatment)), 3.0 ± 0.3; in data set [1] (6 mg/kg s.c. three times, 180 min after induction with carrageenan, significant difference from Vehicle group), 8.3 ± 1.0; in data set [1] (6 mg/kg s.c. three times, Pre (before carrageenan treatment)), 3.0 ± 0.3; in data set [1] (20 mg/kg s.c. three times, 180 min after induction with carrageenan) it was 8.6 ± 1.4; in data set [1] (20 mg/kg s.c. three times, Pre (before carrageenan treatment)), 3.0 ± 0.3. Moreover, the entries for the “acetaldehyde oxidation rate (rate with no test compound assumed as 100%)” value in data set [2] (concentration of test compound 10 μM) and in data set [2] (concentration of test compound 30 μM) were 196% and 238%, respectively. In addition, the “Residual rate (%) of unchanged form” value in data set [3] is 90%; in data set [4] (mouse hepatic microsomes, after 30 minutes, 37° C., NADPH), 90%. Besides, the “metabolic stability in mouse hepatic microsomes (in words)” value in data set [4] is listed as “confirmed to have stability”. In data set [5], the IC50 is above 100 µM.
